Assay results as given in EP2678315B1, “(Pyridin-4-yl)benzylamides as allosteric modulators of alpha 7 nAChR” (Janssen Pharmaceutica, N.V., priority 2011, dated 2012).
Like-named read-outs stand apart in the source and are kept apart here.

Target: T1, human alpha 7-wt nAChR (Homo sapiens, UniProt P36544)
T1 construct: expressed in transfected cells
Test: Ca2+ flux imaging (FDSS) (protocol B)
Format: cell-based
Conditions: for EC50: read-out: pEC50 (converted); for Emax: read-out: % Efficacy
Protocol: Example D.1 : Ca^2+ flux imaging (FDSS) (protocol B)
• a) Assay buffer Hanks buffered saline solution (HBSS, Invitrogen, Belgium), supplemented with 10 mM HEPES (Invitrogen, Belgium), CaCl2 to a final concentration of 5 mM, 0.1 % Bovine serum albumin (Sigma-Aldrich NV, Belgium). • b) Calcium-sensitive dye - Fluo-4AM Fluo-4AM (Molecular Probes, USA) was dissolved in DMSO containing 10% Pluronic acid (Molecular Probes, USA) to give a stock solution which was diluted in assay buffer supplemented with 5 mM probenicid (Sigma, Aldrich NV, Belgium) to give a final concentration of 2 µM • c) 384-well plates Black-sided, transparent bottomed 384 well plates coated with poly-D-lysine, PDL pre-coated (Coming, Incorporated, USA) • d) Calcium flux measurement A Functional drug screening system (FDSS, Hamamatsu) was used to measure intracellular free-calcium flux signals.
Monolayers of human alpha 7-wt nAChR-expressing cells were grown in black-sided, transparent bottomed 384 well plates coated with PDL for 24 hours prior to loading with a fluorescent calcium indicator, fluo-4AM for up to 120 minutes.
PAM activity was detected in real time by applying the compounds to be tested to the loaded cells along with an alpha 7 nicotinic receptor agonist during constant monitoring of cellular fluorescence in a FDSS. Compounds giving peak fluorescent responses greater than the response due to agonist alone, were consideted to be alpha 7 nAChR PAMs. The alpha 7 nicotinic receptor agonist was choline, applied at a sub-maximal concentration of 100 µM. In a further setting of the present invention the compounds were applied prior to the alpha 7 nicotinic receptor agonist, in a particular 10 minutes prior to the agonist.
A control response to choline was calculated on each plate from the difference in peak in fluorescence in wells receiving either choline or assay buffer alone. Compounds of the present invention were tested at a concentration range from 0.01 µM to 30 µM. Compounds were considered to have an interesting activity when they potentiated the choline signal at least with 200 % when tested at a concentration of 30 µM (the efficacy of 100 µM choline was defined as 100% in the absence of a PAM). An EC50 (or pEC50) was determined as a concentration relating to half the maximal effect, when a clear sigmoidal curve with top plateau was obtained.

T1 sequence (P36544 23-502): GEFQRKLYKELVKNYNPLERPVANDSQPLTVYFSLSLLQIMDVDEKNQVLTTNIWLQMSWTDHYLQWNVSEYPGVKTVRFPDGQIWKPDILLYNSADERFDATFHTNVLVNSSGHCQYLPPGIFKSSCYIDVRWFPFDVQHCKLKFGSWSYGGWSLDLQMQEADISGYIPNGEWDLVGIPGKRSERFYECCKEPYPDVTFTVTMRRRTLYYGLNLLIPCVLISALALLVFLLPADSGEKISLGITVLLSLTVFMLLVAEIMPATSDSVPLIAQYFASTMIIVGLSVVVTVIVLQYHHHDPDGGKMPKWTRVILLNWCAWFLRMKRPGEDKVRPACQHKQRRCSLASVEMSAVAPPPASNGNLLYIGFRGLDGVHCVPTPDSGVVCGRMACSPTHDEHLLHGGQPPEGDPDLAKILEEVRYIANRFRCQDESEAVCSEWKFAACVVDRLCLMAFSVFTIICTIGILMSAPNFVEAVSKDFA

EC50 (Ca2+ assay as described in D.1) [nM]	Emax (Ca2+ assay as described in D.1) [%]	SMILES	Emax [%]
5.37	–	Cc1cc(-c2c(F)cc(N3C[C@@H](C)O[C@@H](C)C3)cc2CNC(=O)CCC(F)(F)F)cc(C)n1 [Compound 81]	–
–	72.4	Cc1cc(-c2ccc(N3CCCC(C(F)(F)F)C3)cc2CNC(=O)c2conc2C)cc(C)n1 (stereo not shown) [Compound 32]	–
–	119	Cc1cc(-c2c(F)cc(N3CCCC(C(F)(F)F)C3)cc2CNC(=O)c2conc2C)cc(C)n1 (stereo not shown) [Compound 98]	–
–	95.5	Cc1cc(-c2ccc(N3CC4CCC(C3)O4)cc2CNC(=O)CC2CC2)cc(C)n1 [Compound 130]	–
776	–	Cc1cc(-c2ccc(N3CCO[C@H](C(F)(F)F)C3)c(F)c2CNC(=O)C2CC2)cc(C)n1 [Compound 69]	–
83.2	–	Cc1cc(-c2ccc(N3CCO[C@@H](C(F)(F)F)C3)c(F)c2CNC(=O)CC2CC2)cc(C)n1 [Compound 59]	–
295	–	Cc1cc(-c2ccc(N3C[C@@H](C)O[C@@H](C)C3)c(F)c2CNC(=O)CC2CC2)cc(C)n1 [Compound 37]	–
1100	–	CC(C)C(=O)NCc1cc(N2C[C@@H](C)O[C@@H](C)C2)ccc1-c1ccncc1 [Compound 15]	–
120	–	Cc1cc(-c2ccc(N3C[C@@H](C)O[C@@H](C)C3)c(F)c2CNC(=O)CC(C)C)cc(C)n1 [Compound 43]	–
132	–	Cc1cc(-c2ccc(N3CCO[C@H](C(F)(F)F)C3)c(F)c2CNC(=O)CC(C)C)cc(C)n1 [Compound 68]	–
269	–	Cc1cc(-c2ccc(N3CCO[C@@H](C(F)(F)F)C3)c(F)c2CNC(=O)c2conc2C)cc(C)n1 [Compound 58]	–
457	–	Cc1cc(-c2ccc(C3C[C@@H](C)O[C@@H](C)C3)c(F)c2CNC(=O)CC2CC2)cc(C)n1 (relative stereo) [Compound 53]	–
525	–	Cc1cc(-c2c(F)cc(N3C[C@@H](C)O[C@@H](C)C3)cc2CNC(=O)c2cc(C)on2)ccn1 [Compound 90]	–
32.4	–	Cc1cc(-c2ccc(N3CCO[C@@H](C(F)(F)F)C3)c(F)c2CNC(=O)CC2CCC2)cc(C)n1 [Compound 71]	–
1580	–	Cc1cc(-c2ccc(C3C[C@@H](C)O[C@@H](C)C3)c(F)c2CNC(=O)C2CC2)cc(C)n1 (relative stereo) [Compound 54]	–
138	–	Cc1cc(-c2ccc(N3C[C@@H](C)O[C@@H](C)C3)c(F)c2CNC(=O)CC2CCC2)cc(C)n1 [Compound 45]	–
871	–	Cc1cc(-c2ccc(C3C[C@@H](C)O[C@@H](C)C3)c(F)c2CNC(=O)C(C)C)cc(C)n1 (relative stereo) [Compound 61]	–
316	–	Cc1cc(-c2ccc(N3C[C@@H](C)O[C@@H](C)C3)c(F)c2CNC(=O)CCCC(F)(F)F)cc(C)n1 [Compound 44]	–
6.17	–	Cc1cc(-c2c(F)cc(N3C[C@@H](C)O[C@@H](C)C3)cc2CNC(=O)CC2CCC2)cc(C)n1 [Compound 80]	–
–	131	Cc1cc(-c2ccc(N3CCCC(C(F)(F)F)C3)cc2CNC(=O)C(C)C)cc(C)n1 (stereo not shown) [Compound 36]	–
347	–	Cc1cc(-c2ccc(N3CCO[C@H](C(F)(F)F)C3)c(F)c2CNC(=O)c2cc(C)on2)cc(C)n1 [Compound 67]	–
24	–	Cc1cc(-c2ccc(N3C[C@@H](C)O[C@@H](C)C3)c(F)c2CNC(=O)CC(C)(C)C)cc(C)n1 [Compound 48]	–

Second part, the molecule before the results:

SMILES	EC50 (Ca2+ assay as described in D.1) [nM]	Emax (Ca2+ assay as described in D.1) [%]	Emax [%]
Cc1cc(-c2ccc(N3CCOCC3)cc2CNC(=O)c2conc2C)cc(C)n1 [Compound 26]	457	–	202
Cc1cc(-c2c(F)cc(N3C[C@@H](C)O[C@@H](C)C3)cc2CNC(=O)CC2CC2)cc(C)n1 [Compound 74]	11.2	–	508
Cc1cc(-c2ccc(N3CC4CCC(C3)O4)cc2CNC(=O)C(C)C)cc(C)n1 [Compound 129]	724	–	296
Cc1cc(-c2ccc(N3C[C@@H](C)O[C@@H](C)C3)cc2CNC(=O)CC(F)(F)F)cc(C)n1 [Compound 7]	–	287	–
Cc1nocc1C(=O)NCc1cc(N2C[C@@H](C)O[C@@H](C)C2)ccc1-c1ccncc1 [Compound 17]	1660	–	681
Cc1cc(-c2c(F)cc(N3CCCC(C(F)(F)F)C3)cc2CNC(=O)C(C)C2CC2)cc(C)n1 (stereo not shown) [Compound 93]	36.3	–	736
O=C(CC1CC1)NCc1cc(N2CCOCC2)ccc1-c1ccncc1 [Compound 139]	3160	–	367
Cc1cc(-c2c(F)cc(N3C[C@@H](C)O[C@@H](C)C3)cc2CNC(=O)C2CCC2)cc(C)n1 [Compound 85]	6.17	–	954
Cc1cc(-c2c(F)cc(N3C[C@@H](C)O[C@@H](C)C3)cc2CNC(=O)CC(C)C)cc(C)n1 [Compound 83]	7.08	–	906
Cc1cc(-c2c(F)cc(N3CCCC(C(F)(F)F)C3)cc2CNC(=O)C2CC2)cc(C)n1 (stereo not shown) [Compound 97]	19.5	–	330
Cc1cc(-c2c(F)cc(N3CCCC(C(F)(F)F)C3)cc2CNC(=O)c2cc(C)on2)cc(C)n1 (stereo not shown) [Compound 94]	195	–	428
Cc1cc(-c2ccc(N3C[C@@H](C)O[C@@H](C)C3)cc2CNC(=O)C(C)C)ccn1 [Compound 9]	240	–	–
Cc1cc(-c2ccc(N3CCOCC3)cc2CNC(=O)C(C)C)cc(C)n1 [Compound 29]	813	–	256
Cc1cc(-c2ccc(N3C[C@@H](C)O[C@@H](C)C3)cc2CNC(=O)c2cc(C)on2)ccn1 [Compound 10]	1230	–	–
Cc1cc(-c2ccc(N3CCO[C@H](C(F)(F)F)C3)c(F)c2CNC(=O)c2conc2C)cc(C)n1 [Compound 66]	398	–	649
Cc1cc(-c2ccc(N3C[C@@H](C)O[C@@H](C)C3)cc2CNC(=O)C2CC2)ccn1 [Compound 14]	589	–	–
Cc1cc(-c2ccc(N3C[C@H](C(F)(F)F)C[C@H](C(F)(F)F)C3)cc2CNC(=O)CC2CC2)cc(C)n1 [Compound 22]	16.2	–	458
